How the values were obtained:
Test in all cases: relative viability (nuclei count vs DMSO), 5 days (fraction); higher = more cells survive
A-427 = tested on: A-427
How it was run: (§1)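 For relative viability, nuclei counts in treated wells were divided by those in vehicle wells. Lung cancer cell lines had been pin-tool dosed in 1536-well plates the day after seeding and cultured for 5 days, then fixed and stained in one step (final 0.05% Triton X-100, 1% formaldehyde, 1 ug/ml Hoechst) and imaged at 4×. Doses were one drug alone or a fixed anchor-drug dose plus five library-drug doses (not always all listed) in √10 steps, and values are duplicate-plate medians.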

NCI-H650 = tested on: NCI-H650
How it was run: as §1

NCI-H1650 = tested on: NCI-H1650
How it was run: as §1

201T = tested on: 201T
How it was run: as §1

NCI-H358 = tested on: NCI-H358
How it was run: as §1

COR-L23 = tested on: COR-L23
How it was run: as §1

SK-MES-1 = tested on: SK-MES-1
How it was run: as §1

BEN = tested on: BEN
How it was run: as §1

NCI-H2342 = tested on: NCI-H2342
How it was run: as §1

HCC-44 = tested on: HCC-44
How it was run: as §1

NCI-H1975 = tested on: NCI-H1975
How it was run: as §1

EKVX = tested on: EKVX
How it was run: as §1

NCI-H1437 = tested on: NCI-H1437
How it was run: as §1

HCC-15 = tested on: HCC-15
How it was run: as §1

NCI-H441 = tested on: NCI-H441
How it was run: as §1

NCI-H838 = tested on: NCI-H838
How it was run: as §1

SW 900 = tested on: SW 900
How it was run: as §1

NCI-H23 = tested on: NCI-H23
How it was run: as §1

HARA = tested on: HARA
How it was run: as §1

HCC-827 = tested on: HCC-827
How it was run: as §1

NCI-H1666 = tested on: NCI-H1666
How it was run: as §1

NCI-H596 = tested on: NCI-H596
How it was run: as §1

Question: Which results are given for `CCN(CC)CCCCNc1ncc2cc(-c3cc(OC)cc(OC)c3)c(NC(=O)NC(C)(C)C)nc2n1` + O=C(CCCCCCC(=O)Nc1ccccc1)NO [Vorinostat] (partner 1 µM)?
Answer: relative viability (A-427; first compound 0.01 µM): 0.806; relative viability (A-427; first compound 0.03162 µM): 0.919; relative viability (A-427; first compound 0.1 µM): 1.02; relative viability (A-427; first compound 0.3162 µM): 0.926; relative viability (A-427; first compound 1 µM): 0.817; relative viability (NCI-H650; first compound 0.01 µM): 0.349; relative viability (NCI-H650; first compound 0.03162 µM): 0.433; relative viability (NCI-H650; first compound 0.1 µM): 0.498; relative viability (NCI-H650; first compound 0.3162 µM): 0.525; relative viability (NCI-H650; first compound 1 µM): 0.422; relative viability (NCI-H1650; first compound 0.01 µM): 0.625; relative viability (NCI-H1650; first compound 0.03162 µM): 0.616; relative viability (NCI-H1650; first compound 0.1 µM): 0.531; relative viability (NCI-H1650; first compound 0.3162 µM): 0.655; relative viability (NCI-H1650; first compound 1 µM): 0.432; relative viability (201T; first compound 0.01 µM): 1; relative viability (201T; first compound 0.03162 µM): 1.03; relative viability (201T; first compound 0.1 µM): 0.973; relative viability (201T; first compound 0.3162 µM): 0.981; relative viability (201T; first compound 1 µM): 0.887; relative viability (NCI-H358; first compound 0.01 µM): 0.684; relative viability (NCI-H358; first compound 0.03162 µM): 0.879; relative viability (NCI-H358; first compound 0.1 µM): 0.813; relative viability (NCI-H358; first compound 0.3162 µM): 0.806; relative viability (NCI-H358; first compound 1 µM): 0.583; relative viability (COR-L23; first compound 0.01 µM): 0.467; relative viability (COR-L23; first compound 0.03162 µM): 0.495; relative viability (COR-L23; first compound 0.1 µM): 0.379; relative viability (COR-L23; first compound 0.3162 µM): 0.593; relative viability (COR-L23; first compound 1 µM): 0.434; relative viability (SK-MES-1; first compound 0.01 µM): 1.15; relative viability (SK-MES-1; first compound 0.03162 µM): 1.17; relative viability (SK-MES-1; first compound 0.1 µM): 1.22; relative viability (SK-MES-1; first compound 0.3162 µM): 1.52; relative viability (SK-MES-1; first compound 1 µM): 1.19; relative viability (BEN; first compound 0.01 µM): 0.617; relative viability (BEN; first compound 0.03162 µM): 0.547; relative viability (BEN; first compound 0.1 µM): 0.579; relative viability (BEN; first compound 0.3162 µM): 0.544; relative viability (BEN; first compound 1 µM): 0.546; relative viability (NCI-H2342; first compound 0.01 µM): 0.699; relative viability (NCI-H2342; first compound 0.03162 µM): 0.716; relative viability (NCI-H2342; first compound 0.1 µM): 0.796; relative viability (NCI-H2342; first compound 0.3162 µM): 0.708; relative viability (NCI-H2342; first compound 1 µM): 0.875; relative viability (HCC-44; first compound 0.01 µM): 1.11; relative viability (HCC-44; first compound 0.03162 µM): 1.08; relative viability (HCC-44; first compound 0.1 µM): 1.16; relative viability (HCC-44; first compound 0.3162 µM): 1.08; relative viability (HCC-44; first compound 1 µM): 1.15; relative viability (NCI-H1975; first compound 0.01 µM): 0.758; relative viability (NCI-H1975; first compound 0.03162 µM): 0.756; relative viability (NCI-H1975; first compound 0.1 µM): 0.853; relative viability (NCI-H1975; first compound 0.3162 µM): 0.78; relative viability (NCI-H1975; first compound 1 µM): 0.548; relative viability (EKVX; first compound 0.01 µM): 0.814; relative viability (EKVX; first compound 0.03162 µM): 0.734; relative viability (EKVX; first compound 0.1 µM): 0.731; relative viability (EKVX; first compound 0.3162 µM): 0.704; relative viability (EKVX; first compound 1 µM): 0.621; relative viability (NCI-H1437; first compound 0.01 µM): 0.88; relative viability (NCI-H1437; first compound 0.03162 µM): 0.821; relative viability (NCI-H1437; first compound 0.1 µM): 0.827; relative viability (NCI-H1437; first compound 0.3162 µM): 0.948; relative viability (NCI-H1437; first compound 1 µM): 0.82; relative viability (HCC-15; first compound 0.01 µM): 0.857; relative viability (HCC-15; first compound 0.03162 µM): 0.849; relative viability (HCC-15; first compound 0.1 µM): 0.867; relative viability (HCC-15; first compound 0.3162 µM): 0.929; relative viability (HCC-15; first compound 1 µM): 0.836; relative viability (NCI-H441; first compound 0.01 µM): 0.863; relative viability (NCI-H441; first compound 0.03162 µM): 0.829; relative viability (NCI-H441; first compound 0.1 µM): 0.811; relative viability (NCI-H441; first compound 0.3162 µM): 0.776; relative viability (NCI-H441; first compound 1 µM): 0.826; relative viability (NCI-H838; first compound 0.01 µM): 0.669; relative viability (NCI-H838; first compound 0.03162 µM): 0.732; relative viability (NCI-H838; first compound 0.1 µM): 0.779; relative viability (NCI-H838; first compound 0.3162 µM): 0.69; relative viability (NCI-H838; first compound 1 µM): 0.592; relative viability (SW 900; first compound 0.01 µM): 0.551; relative viability (SW 900; first compound 0.03162 µM): 0.626; relative viability (SW 900; first compound 0.1 µM): 0.44; relative viability (SW 900; first compound 0.3162 µM): 0.412; relative viability (SW 900; first compound 1 µM): 0.254; relative viability (NCI-H23; first compound 0.01 µM): 0.615; relative viability (NCI-H23; first compound 0.03162 µM): 0.711; relative viability (NCI-H23; first compound 0.1 µM): 0.715; relative viability (NCI-H23; first compound 0.3162 µM): 0.467; relative viability (NCI-H23; first compound 1 µM): 0.581; relative viability (HARA; first compound 0.01 µM): 0.406; relative viability (HARA; first compound 0.03162 µM): 0.483; relative viability (HARA; first compound 0.1 µM): 0.528; relative viability (HARA; first compound 0.3162 µM): 0.51; relative viability (HARA; first compound 1 µM): 0.365; relative viability (HCC-827; first compound 0.01 µM): 0.883; relative viability (HCC-827; first compound 0.03162 µM): 0.969; relative viability (HCC-827; first compound 0.1 µM): 0.866; relative viability (HCC-827; first compound 0.3162 µM): 0.937; relative viability (HCC-827; first compound 1 µM): 0.674; relative viability (NCI-H1666; first compound 0.01 µM): 1.13; relative viability (NCI-H1666; first compound 0.03162 µM): 1.01; relative viability (NCI-H1666; first compound 0.1 µM): 1.04; relative viability (NCI-H1666; first compound 0.3162 µM): 1.1; relative viability (NCI-H1666; first compound 1 µM): 1.05; relative viability (NCI-H596; first compound 0.01 µM): 0.658; relative viability (NCI-H596; first compound 0.03162 µM): 0.699; relative viability (NCI-H596; first compound 0.1 µM): 0.597; relative viability (NCI-H596; first compound 0.3162 µM): 0.625; relative viability (NCI-H596; first compound 1 µM): 0.579
